# In article PMC5674823, “Cloning, expression and identification of KTX-Sp4, a selective Kv1.3 peptidic blocker from Scorpiops pococki” (Cell & Bioscience, 2017):
# Bridge positions count the residues as written; N and C are the ends. Ends that are not written are not given here.
# What was measured:
# hKv1.2 = assay: Whole-cell patch-clamp, Kv1.2 heterologously expressed in HEK293T cells; assay type: cell-based, human; settings: 1 μM peptide
# Experimental: (§1) Jurkat E6-1 T cells (ATCC TIB152) and HEK293T cells (ATCC ACS4500) were maintained in RPMI medium 1640 (Invitrogen, Carlsbad, CA, USA) and Dulbecco’s modified Eagle’s medium (DMEM) (Life Technologies, GrandIsland, NY, USA), supplemented with 10% fetal bovine serum (Life Technologies), 100 units/ml penicillin, 100 μg/ml streptomycin, respectively. Cells were cultured in a humidified incubator at 37 °C with 5% CO2. The cDNAs encoding mKv1.1, mKv1.1-AEHS/PSGN, hKv1.2 and mKv1.3 [18] were subcloned into the XhoI/BamHI sites of a bicistronic vector, pIRES2-EGFP (Clontech, USA), then transiently transfected into HEK293-T cells using Lipofectamine 2000 (Invitrogen) for electrophysiological experiments.
# (§2) Whole-cell patch-clamp recordings were performed using an EPC 9 amplifier (HEKA Elektronik, Lambrecht/Pfalz, Germany) at room temperature (22–24 °C). Pipettes pulled from borosilicate glass (BF 150-86-10; Sutter Instrument Company, Novato, CA, USA) had resistances of 2–4 MΩ when filled with the internal solution. The internal pipette solution for recording Kv currents on DRG neurons contained: 120 mM potassium gluconate, 20 mM KCl, 10 mM EGTA, 10 mM HEPES, 5 mM Na2-ATP, 2 mM MgCl2, 1 mM CaCl2 (pH 7.3 withKOH). […]
# mKv1.3 = target: T1, mKv1.3 (Mus musculus, UniProt P16390); assay: Whole-cell patch-clamp, mKv1.3 heterologously expressed in HEK293T cells; assay type: cell-based
# T1 construct: expressed in transfected cells; host or cells: HEK293T cells, pIRES2-EGFP vector
# T1 sequence (P16390 whole entry): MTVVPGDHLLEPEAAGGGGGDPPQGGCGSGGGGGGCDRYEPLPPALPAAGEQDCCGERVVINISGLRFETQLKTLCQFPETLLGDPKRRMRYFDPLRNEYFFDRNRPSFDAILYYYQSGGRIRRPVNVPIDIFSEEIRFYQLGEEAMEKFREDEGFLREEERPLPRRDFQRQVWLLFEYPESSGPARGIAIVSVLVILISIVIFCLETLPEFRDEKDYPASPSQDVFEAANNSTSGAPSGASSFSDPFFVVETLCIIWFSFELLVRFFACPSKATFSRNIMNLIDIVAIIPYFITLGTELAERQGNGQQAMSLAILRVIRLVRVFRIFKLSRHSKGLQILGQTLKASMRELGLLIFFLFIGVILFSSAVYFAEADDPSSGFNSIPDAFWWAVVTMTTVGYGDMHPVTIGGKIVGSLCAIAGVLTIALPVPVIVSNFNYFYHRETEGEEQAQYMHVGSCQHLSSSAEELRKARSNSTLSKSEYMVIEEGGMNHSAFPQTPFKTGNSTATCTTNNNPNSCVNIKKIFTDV
# Experimental: as §1, §2
# mKv1.1-AEHS/PSGN = target: T2, mKv1.1-AEHS/PSGN (Mus musculus, UniProt P16388, A352P/E353S/H355G/S357N); assay: Whole-cell patch-clamp, turret mutant Kv1.1-AEHS/PSGN expressed in HEK293T cells; assay type: cell-based; settings: four Kv1.1 turret residues replaced by those of Kv1.3, mean ± SE of six experiments, SEM, read-out: IC50 on Kv1.1-AEHS/PGSN mutant channel
# T2 construct: expressed in transfected cells; host or cells: HEK293T cells, pIRES2-EGFP vector
# T2 sequence (P16388 whole entry A352P/E353S/H355G/S357N): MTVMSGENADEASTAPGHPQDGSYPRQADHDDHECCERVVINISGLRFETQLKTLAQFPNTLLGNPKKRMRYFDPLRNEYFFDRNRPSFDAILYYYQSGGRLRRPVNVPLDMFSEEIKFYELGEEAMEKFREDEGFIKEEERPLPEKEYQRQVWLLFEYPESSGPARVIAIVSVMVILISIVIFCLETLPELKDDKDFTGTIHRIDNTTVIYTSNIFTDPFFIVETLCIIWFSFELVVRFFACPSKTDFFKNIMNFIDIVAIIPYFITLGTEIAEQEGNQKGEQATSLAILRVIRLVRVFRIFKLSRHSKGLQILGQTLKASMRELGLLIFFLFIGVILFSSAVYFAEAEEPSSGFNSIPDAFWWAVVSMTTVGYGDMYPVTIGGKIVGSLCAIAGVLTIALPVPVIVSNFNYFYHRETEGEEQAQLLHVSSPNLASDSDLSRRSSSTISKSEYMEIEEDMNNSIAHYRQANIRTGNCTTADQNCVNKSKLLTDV
# Experimental: as §1, §2
# [1] = target: T3, endogenous Kv1.3 expressed by human Jurkat T cells (Homo sapiens, UniProt P22001); assay: Whole-cell patch-clamp, endogenous Kv1.3 currents in Jurkat T cells; assay type: cell-based
# T3 construct: endogenous Kv1.3 expressed by human Jurkat T cells; endogenous in cells; host or cells: Jurkat E6-1 T cells (ATCC TIB152)
# T3 sequence (P22001 whole entry): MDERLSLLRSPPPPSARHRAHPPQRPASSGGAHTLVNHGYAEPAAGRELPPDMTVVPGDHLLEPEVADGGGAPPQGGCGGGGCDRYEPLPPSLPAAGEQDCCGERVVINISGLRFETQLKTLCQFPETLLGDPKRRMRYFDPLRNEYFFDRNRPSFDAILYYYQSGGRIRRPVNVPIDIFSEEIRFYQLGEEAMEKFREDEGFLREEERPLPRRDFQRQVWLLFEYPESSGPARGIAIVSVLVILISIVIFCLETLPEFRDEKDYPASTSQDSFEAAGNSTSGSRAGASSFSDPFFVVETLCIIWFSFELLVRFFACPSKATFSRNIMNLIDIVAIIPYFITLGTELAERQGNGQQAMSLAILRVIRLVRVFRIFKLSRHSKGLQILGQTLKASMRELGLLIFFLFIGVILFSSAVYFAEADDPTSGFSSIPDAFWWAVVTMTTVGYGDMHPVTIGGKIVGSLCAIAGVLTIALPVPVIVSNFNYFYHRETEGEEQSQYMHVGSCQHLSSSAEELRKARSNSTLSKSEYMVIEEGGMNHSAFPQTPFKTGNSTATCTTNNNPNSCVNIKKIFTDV
# Experimental: as §1, §2
# mKv1.1 = assay: Whole-cell patch-clamp, Kv1.1 heterologously expressed in HEK293T cells; assay type: cell-based, mouse; settings: 1 μM peptide
# Experimental: as §1, §2
# [2] = system: voltage-gated potassium channels on DRG cells; assay: Whole-cell patch-clamp, voltage-gated K+ currents in acutely isolated DRG cells; assay type: cell-based, mouse; settings: 1 μM peptide, +50 mV 400 ms pulse from -60 mV
# Experimental: Mouse spinal columns were removed and placed in ice-cold HBSS; neurons were acutely dissociated and maintained as described. In brief, laminectomies were performed and bilateral DRG were dissected out. After removal of connective tissues, DRG were transferred to a 1 ml Ca^2+/Mg^2+-free HBSS containing 2 μl saturated NaHCO3, 0.35 mg L-cysteine and 20 U papain (Worthington, Lakewood, NJ, USA), and incubated at 37 °C for 10 min. The suspension of DRG was centrifuged, the supernatant was removed, 1 ml Ca^2+/Mg^2+-free HBSS containing 4 mg collagenase type II and 1.25 mg dispase type II (Worthington) was added and incubated at 37 °C for 10 min. After digestion, neurons were pelleted, suspended in neurobasal medium containing 2% B-27 supplement, 1% L-glutamine, 100 U/ml penicillin plus 100 μg/ml streptomycin, and 50 ng/ml nerve growth factor, plated on a 12 mm coverslip coated with poly-L-lysine (10 μg/ml) and cultured under a humidified atmosphere of 5% CO2/95% air at 37 °C for 18–24 h before use.
# Whole-cell patch-clamp recordings were performed using an EPC 9 amplifier (HEKA Elektronik, Lambrecht/Pfalz, Germany) at room temperature (22–24 °C). Pipettes pulled from borosilicate glass (BF 150-86-10; Sutter Instrument Company, Novato, CA, USA) had resistances of 2–4 MΩ when filled with the internal solution. […]
sequence,measurement,setting,value
"AFPSENPTGGCPLSDNVCSSYCKKNKFGNEGKCHGTICKCSIK (disulfide 11-33, 18-38, 22-40 (inferred)) [KTX-Sp4]",Reduction of maximum current of Kv1.2 channel,hKv1.2,~7.23%
same,IC50,"mKv1.3; HEK293T cells, steady-state current at end of depolarizing pulse, n = 10, read-out: IC50 on wild-type mKv1.3-mediated steady-state current",24.7 ± 10.8 nM
same,"Blocking activity on Kv1.3, times weaker than that of J123",mKv1.3; comparison with J123,31 times
same,IC50,mKv1.1-AEHS/PSGN,12.1 ± 4.08 nM
same,Reversibility of suppressive effect on Kv1.3 after washout,"[1]; Jurkat T cells, bath application, washout",partially reversible
same,IC50,"[1]; whole-cell patch-clamp, +50 mV 400 ms pulse from -60 mV, almost zero cytosolic Ca2+ pipette solution, Hill fit, n = 8, read-out: IC50 of inhibition of Kv1.3 current in Jurkat T cells",235 ± 3.36 nM
same,Reduction of maximum current of Kv1.1 channel,mKv1.1,about 20.85%
same,Inhibitory effect on voltage-gated K+ currents on DRG cells,[2],no significant inhibitory effect
